Assay results from publication PMC8185074, “Anchor extension: a structure-guided approach to design cyclic peptides targeting enzyme active sites” (Nature Communications, 2021).
Where two headings read alike, the source gives them in different places. Peptide text beside a SMILES is read from it.

Biological target: T1, HDAC2 (Homo sapiens, UniProt Q92769)
T1 construct: purchased Reaction Biology Corporation (assay run by the CRO)
Experiment: Initial HDAC2 IC50 estimate (BPS Biosciences HDAC fluorogenic assay kit)
Type: biochemical
Details: Supplementary Dataset 2
Protocol: Initial IC50 values were estimated using HDAC fluorogenic assay kits from BPS Biosciences (HDAC2, HDAC4, and HDAC6) following the protocol described in the kit. All the measures were performed in duplicates or triplicates. These measurements were done either on full range of concentrations (1:10 dilution from 1 µM to 100 pM) or on two concentrations only (20 nM and 200 nM) as an estimate of the range. […] Source Data are provided as a Source Data file.

[1] = HDAC2 activity (initial activity)

T1 sequence (Q92769 whole entry): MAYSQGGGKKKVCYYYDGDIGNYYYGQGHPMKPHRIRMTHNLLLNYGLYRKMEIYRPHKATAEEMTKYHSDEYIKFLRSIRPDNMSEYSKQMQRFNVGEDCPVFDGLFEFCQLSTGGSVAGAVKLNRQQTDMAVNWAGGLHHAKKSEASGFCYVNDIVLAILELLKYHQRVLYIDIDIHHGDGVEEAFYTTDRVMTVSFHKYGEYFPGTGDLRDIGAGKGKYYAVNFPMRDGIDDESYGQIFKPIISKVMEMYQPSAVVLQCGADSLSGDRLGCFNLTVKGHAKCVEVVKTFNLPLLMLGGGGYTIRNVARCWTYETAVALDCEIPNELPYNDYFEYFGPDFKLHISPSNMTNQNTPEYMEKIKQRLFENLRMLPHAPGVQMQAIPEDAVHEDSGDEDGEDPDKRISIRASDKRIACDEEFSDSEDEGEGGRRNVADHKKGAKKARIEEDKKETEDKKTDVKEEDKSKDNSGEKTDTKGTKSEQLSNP

Compound: CCCC[C@H]1NC(=O)[C@@H](CCCCN)NC(=O)[C@H](CCCCCS)NC(=O)[C@@H](C)NC(=O)[C@H](CCCNC(=N)N)NC(=O)[C@@H]([C@H](C)O)NC(=O)[C@@H](CC(N)=O)NC(=O)[C@H](CCC(=O)O)NC1=O [des1.2.0, SHA-dLys-dNle-Glu-dAsn-dThr-Arg-dAla] (HELM PEPTIDE1{E.[dN].[dT].R.[dA].[O=C([C@H](CCCCCS)N[*:1])[*:2]].[dK].[CCCC[C@@H](N[*:1])C(=O)[*:2]]}$PEPTIDE1,PEPTIDE1,1:R1-8:R2$$$V2.0)
- IC50 (read-out: HDAC2 activity (initial activity)): 100000 nM

Compound: C[C@H]1NC(=O)[C@H](CCCNC(=N)N)NC(=O)[C@@H](CC(N)=O)NC(=O)[C@@H](CC(N)=O)NC(=O)[C@H](CCC(=O)O)NC(=O)[C@@H](CC(=O)O)NC(=O)[C@@H](CC(N)=O)NC(=O)[C@H](CCCCCS)NC1=O [des1.3.0, SHA-dAsn-dAsp-Glu-dAsn-dAsn-Arg-dAla] (HELM PEPTIDE1{E.[dN].[dN].R.[dA].[O=C([C@H](CCCCCS)N[*:1])[*:2]].[dN].[dD]}$PEPTIDE1,PEPTIDE1,1:R1-8:R2$$$V2.0)
- IC50 [1]: 1000 nM

Compound: CC(C)C[C@H]1NC(=O)[C@H](Cc2c[nH]c3ccccc23)NC(=O)[C@H](CCCCCS)NC(=O)[C@@H](Cc2ccc(O)cc2)NC(=O)[C@@H]([C@H](C)O)NC(=O)[C@H](Cc2c[nH]cn2)NC(=O)CNC(=O)[C@H]2CCCN2C(=O)[C@@H](CO)NC1=O [des2.2.2, SHA-Trp-dLeu-dSer-dPro-Gly-His-dThr-dTyr] (HELM PEPTIDE1{G.H.[dT].[dY].[O=C([C@H](CCCCCS)N[*:1])[*:2]].W.[dL].[dS].[dP]}$PEPTIDE1,PEPTIDE1,1:R1-9:R2$$$V2.0)
- IC50 [1]: 500 nM
